According to the NIST ThermoML archive (doi:10.1021/je0501639):

Assay: xn = mol fraction of the nth substance listed
Details: 100.8 kPa, Liquid

CC(C)(C)O [2-methylpropan-2-ol] + CC(C)CC(C)(C)C
Details	mass density, 298.15 K [kg/m3]	mass density, 308.15 K [kg/m3]	viscosity, 298.15 K [mPa·s]	viscosity, 308.15 K [mPa·s]
x1 = 0.05	689.77	681.15	0.483	0.425
x1 = 0.1	691.89	683.25	0.509	0.449
x1 = 0.15	694.45	685.62	0.515	–
x1 = 0.2	697.14	–	0.553	–
x1 = 0.25	700.02	–	0.564	–
x1 = 0.3	703.12	–	0.598	–
x1 = 0.35	706.4	–	0.614	–
x1 = 0.4	709.87	–	0.665	–
x1 = 0.45	713.52	–	0.698	–
x1 = 0.5	717.43	–	0.765	–
x1 = 0.55	721.62	–	0.805	–
x1 = 0.6	726.19	–	0.912	–
x1 = 0.65	731.11	–	0.984	–
x1 = 0.7	736.55	–	1.107	–
x1 = 0.75	742.44	–	1.297	–
x1 = 0.8	748.88	–	1.557	–
x1 = 0.85	755.87	–	1.895	–
x1 = 0.9	763.54	–	2.426	–
x1 = 0.95	771.9	–	3.172	–
x1 = 1	780.99	–	4.43	–
